Experimental data: PMC8532448, “Drug target inference by mining transcriptional data using a novel graph convolutional network framework” (Protein & Cell, 2021)

Target: Cyclophilin A (CYPA, PPIA) (Homo sapiens, UniProt P62937)
Experiment: SPR with purified CYPA; also protein thermal shift (destabilization) and chymotrypsin-coupled PPIase inhibition
Type: binding

Cyclophilin A (CYPA, PPIA), sequence (P62937 whole entry): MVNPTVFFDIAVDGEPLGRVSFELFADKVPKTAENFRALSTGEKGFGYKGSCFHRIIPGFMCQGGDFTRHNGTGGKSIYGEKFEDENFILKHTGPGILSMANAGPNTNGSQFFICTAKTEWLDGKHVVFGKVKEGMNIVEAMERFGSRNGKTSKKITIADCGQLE

Cc1c(O)cccc1C(=O)N[C@@H](CSc1ccccc1)[C@H](O)CN1C[C@H]2CCCC[C@H]2C[C@H]1C(=O)NC(C)(C)C [NFV, Nelfinavir]
Kd: 940 nM
